Legend:
[1] = system: SNP rs7903146 region of TCF7L2 (HCT116 nuclear extracts); test: SILAC oligo pull-down quantifying protein binding to the SNP rs7903146 oligonucleotide with and without insulin treatment; assay type: cell-based, human; conditions: HCT116 cells, 1 uM insulin for 1 hour
Protocol: Human HCT 116 cells were cultured in DMEM (4.5 g/l glucose, 10% FCS, 100 U/mL penicillin and 100 íg/mL streptomycin). For insulin stimulation experiments, cells were treated with 1 uM insulin for 1 hour. For SILAC experiments, Cultures were grown according to standard cell-culture procedures in SILAC-light and SILAC-heavy labeled Dulbecco's Modified Eagle Medium (DMEM, ThermoFisher) supplied with 10% dialyzed fetal bovine serum (FBS), ^13C6-lysine and ^13C6-arginine. Cells were washed by cold phosphate-buffered saline (PBS) and harvested by scraping, centrifugation for 5 min at 5000 rpm at 4° C. 10^8 Cells were lysed in 250 ul low salt buffer (10 mM HEPES, 1.5 mM MgCl2, 10 mM KCl, 0.5% NP-40, proteasome inhibitor, phosphatase inhibitor, 10% glycerol, pH 7.9) by incubation on ice for 20 min with vortex 10 seconds per 5 minutes. The nuclei were separated from cytoplasmic fraction by centrifugation 10,000 rpm for 1 min at 4° C. The nuclei pellets were washed once by cold low salt buffer, harvested by centrifugation. […]
The sample was digested with trypsin and analyzed with nanoLC/MS/MS at the Penn Proteomics Core. […] The data were analyzed with Sequest (ThermoFinnigan, San Jose, Calif.; version SRF v. 5). […] The quantification of the SILAC peaks was performed with ProteolQ with customized modification so that the software can use the zoom scanned SLICA peaks for quantification.
To investigate dynamic binding of Parp-1, ATP-dependent RNA helicase A and Thrap3 for the SNP rs7903146 region, we used stable isotope labeling with amino acids in cell culture (SILAC) (Ong, Blagoev et al. 2002) to quantify the binding affinity changes between with and without insulin treatment.
The heavy cells were isotopically labeled in SILAC medium supplied with ^13C6-lysine and ^13C6-arginine and treated with insulin, while the light cells […] served as a control. […] With this approach, we quantified the relative protein abundances including Parp-1, ATP-dependent RNA helicase A and Thrap3 between treatment and without treatment of insulin.

NCI-H716 = test: GLP-1 secretion in NCI-H716 L-cells, GLP-1 concentration by ELISA; assay type: cell-based, human; conditions: NCI-H716 cells pre-treated 48 hours with inhibitor
Source text: Glucagon-like peptide-1 (GLP-1) has numerous physiological functions, including enhancement of glucose-stimulated insulin secretion, stimulation of β-cell anti-apoptosis and proliferation and inhibition of glucagon secretion, food intake and gastric emptying. These antidiabetic properties of GLP-1 have generated intense interest in the use of this short peptide and its agonists for the treatment of patients with type 2 diabetes. A better understanding of the underlying mechanism of GLP-1 secretion may lead to novel approaches used for the treatment of type 2 diabetes. TCF7L2 is the most strongly associated locus with type 2 diabetes and has been known to bind with the promoter region of the proglucagon gene for many years. […] As such, we investigated if existing PARP-1 inhibitors, previously tested in oncology studies, could have a GLP-1 agonist effect. We leveraged the standard human L-cell line, NCI-H716, for GLP-1 secretion assessment to investigate this possible link. We pre-treated the cells for 48 hours with three different PARP-1 inhibitors, Olaparib, Rucaparib and Iniparib, with or without glucose stimulation (16.8 mM). We measured the resulting GLP-1 concentration using an ELISA kit (Millipore).

[2] = absence of glucose, compared with glucose-elevated level
[3] = with glucose stimulation (16.8 mM)

Row | Parp-1 binding to rs7903146 oligo, up-regulation upon insulin stimulation [1] | Thrap3 binding to rs7903146 oligo, increase upon insulin stimulation [1] | Compound | ATP-dependent RNA helicase A binding to rs7903146 oligo, increase upon insulin stimulation [1] | GLP-1 secretion (GLP-1 concentration by ELISA) (NCI-H716; [2]) | GLP-1 secretion (GLP-1 concentration by ELISA) (NCI-H716; [3])
1 | 20% | 7 fold | insulin | 12 fold |  | 
2 |  |  | NC(=O)c1ccc(I)c([N+](=O)[O-])c1 [Iniparib] |  | equal or greater level of GLP-1 secretion | elevated further
3 |  |  | CNCc1ccc(-c2[nH]c3cc(F)cc4c3c2CCNC4=O)cc1 [Rucaparib] |  | equal or greater level of GLP-1 secretion | elevated further
4 |  |  | O=C(c1cc(Cc2n[nH]c(=O)c3ccccc23)ccc1F)N1CCN(C(=O)C2CC2)CC1 [Olaparib] |  | equal or greater level of GLP-1 secretion | elevated further
